Series [1] addresses ATP-dependent translocase ABCB1 (Mus musculus, UniProt P21447). Description: TP_TRANSPORTER: increase in brain concentration in mdr1a(-/-) mouse. The format is functional, organism-based. The settings on record: in vivo.
Series [2] deals with ATP-dependent translocase ABCB1 (Homo sapiens, UniProt P08183). The series can be described thus: TP_TRANSPORTER: intracellular accumulation in KB cell and KB-VJ300 cells. The class given is functional, cell-based.

Activity data for one compound are collected here from ChEMBL document CHEMBL2073756, “Contribution of P-glycoprotein to bunitrolol efflux across blood-brain barrier” (Biopharm Drug Dispos, 1999).

Chain of ATP-dependent translocase ABCB1 (Homo sapiens, UniProt P08183) (P08183 whole entry): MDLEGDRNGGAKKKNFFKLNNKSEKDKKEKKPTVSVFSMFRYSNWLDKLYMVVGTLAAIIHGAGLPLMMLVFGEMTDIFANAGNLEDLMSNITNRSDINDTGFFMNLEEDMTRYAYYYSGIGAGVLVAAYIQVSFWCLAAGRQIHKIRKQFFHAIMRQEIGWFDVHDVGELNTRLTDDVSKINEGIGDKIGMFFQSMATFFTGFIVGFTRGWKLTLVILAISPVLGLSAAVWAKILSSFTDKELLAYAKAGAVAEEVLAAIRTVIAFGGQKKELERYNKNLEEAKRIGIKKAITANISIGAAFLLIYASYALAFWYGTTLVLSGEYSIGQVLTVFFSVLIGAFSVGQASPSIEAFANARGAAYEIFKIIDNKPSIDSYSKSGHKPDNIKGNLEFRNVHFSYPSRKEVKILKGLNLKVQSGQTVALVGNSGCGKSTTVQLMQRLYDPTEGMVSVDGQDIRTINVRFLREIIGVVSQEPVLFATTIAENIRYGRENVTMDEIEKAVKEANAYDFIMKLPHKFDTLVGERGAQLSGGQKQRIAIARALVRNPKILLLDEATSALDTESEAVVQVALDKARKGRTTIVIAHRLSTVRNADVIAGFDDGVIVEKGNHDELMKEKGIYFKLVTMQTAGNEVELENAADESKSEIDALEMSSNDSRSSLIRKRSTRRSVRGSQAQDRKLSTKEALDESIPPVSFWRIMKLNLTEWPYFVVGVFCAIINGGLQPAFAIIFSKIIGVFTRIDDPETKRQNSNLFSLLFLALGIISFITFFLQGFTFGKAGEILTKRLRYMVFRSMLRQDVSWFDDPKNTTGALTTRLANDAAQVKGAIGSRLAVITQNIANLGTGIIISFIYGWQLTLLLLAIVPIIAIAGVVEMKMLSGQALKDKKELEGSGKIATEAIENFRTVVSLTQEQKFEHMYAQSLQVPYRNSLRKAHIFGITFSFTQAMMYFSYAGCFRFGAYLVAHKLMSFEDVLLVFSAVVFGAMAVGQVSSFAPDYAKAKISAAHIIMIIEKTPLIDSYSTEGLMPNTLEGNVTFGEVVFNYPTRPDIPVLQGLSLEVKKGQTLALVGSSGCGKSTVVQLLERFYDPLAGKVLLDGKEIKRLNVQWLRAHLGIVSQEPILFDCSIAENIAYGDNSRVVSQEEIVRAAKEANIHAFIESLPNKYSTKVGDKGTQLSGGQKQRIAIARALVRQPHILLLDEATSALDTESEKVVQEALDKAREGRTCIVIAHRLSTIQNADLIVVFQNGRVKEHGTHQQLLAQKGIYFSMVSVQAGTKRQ
Chain of ATP-dependent translocase ABCB1 (Mus musculus, UniProt P21447) (P21447 whole entry): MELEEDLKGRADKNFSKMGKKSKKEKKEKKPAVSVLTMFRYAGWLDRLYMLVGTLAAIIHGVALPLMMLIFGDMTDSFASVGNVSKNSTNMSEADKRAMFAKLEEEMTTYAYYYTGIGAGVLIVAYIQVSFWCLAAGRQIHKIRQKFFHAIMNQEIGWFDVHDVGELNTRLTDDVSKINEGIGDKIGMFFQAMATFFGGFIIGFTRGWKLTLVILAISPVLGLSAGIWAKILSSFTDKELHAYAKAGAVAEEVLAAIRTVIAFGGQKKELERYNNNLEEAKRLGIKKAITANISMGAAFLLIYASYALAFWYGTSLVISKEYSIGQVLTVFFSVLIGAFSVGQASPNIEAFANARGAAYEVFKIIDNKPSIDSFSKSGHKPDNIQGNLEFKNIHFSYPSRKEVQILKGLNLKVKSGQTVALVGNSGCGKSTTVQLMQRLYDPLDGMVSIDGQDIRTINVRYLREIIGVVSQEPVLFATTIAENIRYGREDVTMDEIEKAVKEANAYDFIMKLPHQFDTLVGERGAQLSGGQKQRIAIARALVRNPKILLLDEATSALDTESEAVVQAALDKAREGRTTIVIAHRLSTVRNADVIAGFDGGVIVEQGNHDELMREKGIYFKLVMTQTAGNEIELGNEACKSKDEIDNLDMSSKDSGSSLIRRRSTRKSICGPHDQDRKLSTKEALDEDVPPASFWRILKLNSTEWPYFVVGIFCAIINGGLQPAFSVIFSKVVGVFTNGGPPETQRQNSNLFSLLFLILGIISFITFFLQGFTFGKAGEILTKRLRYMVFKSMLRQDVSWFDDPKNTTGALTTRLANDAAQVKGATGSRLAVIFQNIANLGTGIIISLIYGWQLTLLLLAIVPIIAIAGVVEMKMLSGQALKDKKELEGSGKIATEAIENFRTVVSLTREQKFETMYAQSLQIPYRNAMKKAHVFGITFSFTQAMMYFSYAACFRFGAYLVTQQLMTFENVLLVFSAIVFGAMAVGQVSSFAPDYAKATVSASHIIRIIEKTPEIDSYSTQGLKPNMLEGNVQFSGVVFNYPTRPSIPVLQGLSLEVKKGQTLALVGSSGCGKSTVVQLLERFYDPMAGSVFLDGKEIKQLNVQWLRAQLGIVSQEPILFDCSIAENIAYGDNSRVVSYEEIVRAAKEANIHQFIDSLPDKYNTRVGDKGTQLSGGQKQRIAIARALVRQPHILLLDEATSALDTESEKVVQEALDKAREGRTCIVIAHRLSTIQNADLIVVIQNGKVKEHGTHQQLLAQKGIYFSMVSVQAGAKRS

As for `CC(C)(C)NCC(O)COc1ccccc1C#N` (configuration not stated) [BUNITROLOL], the Activity entry in series [1] and in series [2] was “substrate [+]” in each case.
